Entries after “also recorded” stand apart in the source; their conditions may differ.
Columns and labels:
healthy subjects [1] = assay: Gastric emptying rate by 13C-octanoic acid breath test (GET½) after codeine or placebo; format: in vivo, human; conditions: inflated balloon (200 ml), 60 mg codeine as syrup, single dose, n=6
Experimental: The study was designed as a randomized crossover study with 4 groups was (see schematic 14): • 20 ml balloon—placebo • 20 ml balloon—codeine • 200 ml balloon—placebo • 200 ml balloon—codeine
The volunteers received either placebo or codeine as a syrup. After positioning the balloon catheter the balloon was filled with 50 ml for 10 minutes, hereafter the balloon was inflated to 200 ml of deflated to 20 ml depending on the treatment arm. After this and in total 20 minutes after syrup ingestion 150 ml of a nutrient drink (Nutridrink, Nutricia (NL)) was directly infused into the stomach at a constant speed of 75 ml/hour. […]
Gastric emptying rate was measured using the ^13C-octanoic acid breath test (11). ^13C-labeled octanoic acid was solved in the nutrient drink (0.5 mg/ml). Emptying of the stomach was assessed by analysis of the exhaled ^13CO2, after oxidation of octanoic acid in the liver. […]
2) Gastric emptying (breath test). The ratio of ^13CO2 to ^12CO2 (molar mass 45 and 44 gr/mol) in the breath samples collected was measured by isotope ratio mass spectrometry (IRMS; ABCA, Sercon, Crewe, UK). As described before (12) a ^13C recovery rate per hour (% dosage per hour) was calculated per sample taking into account that the total dosage ^13C was administered over 2 hours. […]

healthy subjects [2] = assay: Gastric motility measured as intragastric balloon pressure (motility index, MI) after codeine or placebo; format: in vivo, human; conditions: 60 mg codeine as syrup, single dose, n=6
Text: The example explored the potential of a balloon with the optimal balloon size as determined in examples 1 and the optimal balloon material characteristics as determined in examples 2. More specifically the aim was 3-fold: • To investigate whether the nasogastric balloon catheter can be used to detect (codeine-induced) decreased gastric motility. • To investigate the correlation between gastric motility and gastric emptying changes after codeine treatment. • To investigate whether the presence of an inflated intragastric balloon influences gastric motility and emptying.
6 healthy subjects were recruited for this study. […] Subjects were asked to come to the clinic after at least 6 hours fasting, none of the subjects were taking any medication apart from contraception pills. […]
The 20 ml balloon experiments served as a control for the 200 ml balloon experiments since the effect of a 200 ml balloon on gastric motility and emptying is unknown. Gastric motility was assessed with a double lumen balloon catheter as described below by measuring the pressure in the balloon with an external pressure sensor. […]
Customized computer software (Pharmlab 5.0; AstraZeneca R&D, Mölndal, Sweden) was used to record pressure as mmHg at 1 Hz. […] The baseline was calculated as follows: […]

COc1ccc2c3c1O[C@H]1[C@@H](O)C=C[C@H]4[C@@H](C2)N(C)CC[C@@]341 [codeine]
gastric half emptying time (GET½), codeine vs. placebo (healthy subjects [1]): GET½ increased; also recorded: significant treatment effect (P<0.05); also recorded: increased GET½; also recorded: delayed gastric emptying | gastric half emptying time (GET½), codeine vs. placebo (healthy subjects [1]; listed as Codeine): delayed gastric emptying | gastric contractility expressed as motility index (MI), codeine vs. placebo (healthy subjects [2]; deflated balloon (20 ml)): did not significantly affect MI; also recorded: no effect of treatment; also recorded: No effect of codeine on motility could be detected | gastric contractility expressed as motility index (MI), codeine vs. placebo (healthy subjects [2]; inflated balloon (200 ml)): significant effect on MI (P<0.01); also recorded: motility was always decreased; also recorded: significant treatment effect (P<0.01); also recorded: decreased MI; also recorded: significantly decreased gastric motility
